From patent US9075014B2, “pH-responsive fluorescent false neurotransmitters and their use” (THE TRUSTEES OF COLUMBIA UNIVERSITY IN THE CITY OF NEW YORK, priority 2011, dated 2015)
Values joined by “and” are separate entries in the source; they are usually repeats but may differ in a detail not shown here. Equal values may be shown once. “Also recorded” adds a separate entry of the source.

Key:
[1] = pKa from absorption spectra in PBS at different pH; assay type: physicochemical; conditions: from absorbance at λabs,max versus pH of PBS
Protocol: UV absorption spectra were taken by adding probe (2 μL of 10 mM stock solution in DMSO) to 998 μL of PBS buffer at different pH values (final probe conc.=20 μM) in quartz cuvette.
The pKa values of probes were determined from the absorption spectra.

[2] = Two-photon ratiometric pH measurement of secretory vesicles (LDCVs) in PC-12 cells
[3] = Photostability of probe in fluorescence microscopy
[4] = log D by shake flask method (n-octanol / PBS pH 7.4); assay type: physicochemical
Protocol: The log D values were determined by traditional shake flask method. Each measurement was performed in duplicate as follows. First, 20 μM probe solution in 1 mL PBS (pH 7.4) was prepared to which 1 mL of n-octanol was added and mixed thoroughly. The mixture was kept in dark for 3 days for complete equilibrium, and the concentrations of probe in each layer were determined based on the UV absorbance. Log D values were determined based on the equation; log D=log [probe]oct−log [probe]PBS, where [probe]oct and [probe]PBS are the concentrations of the probe in n-octanol and PBS, respectively.

VMAT1 = target: T1, VMAT1 (Rattus norvegicus, UniProt Q01818); assay: Fluorescent microscopy uptake of Mini202 in PC-12 cells; assay type: cell-based
T1 construct: PC-12 cells express mostly VMAT1 on their secretory large dense core vesicles (LDCVs); host or cells: PC-12 cells
T1 sequence (Q01818 1-521): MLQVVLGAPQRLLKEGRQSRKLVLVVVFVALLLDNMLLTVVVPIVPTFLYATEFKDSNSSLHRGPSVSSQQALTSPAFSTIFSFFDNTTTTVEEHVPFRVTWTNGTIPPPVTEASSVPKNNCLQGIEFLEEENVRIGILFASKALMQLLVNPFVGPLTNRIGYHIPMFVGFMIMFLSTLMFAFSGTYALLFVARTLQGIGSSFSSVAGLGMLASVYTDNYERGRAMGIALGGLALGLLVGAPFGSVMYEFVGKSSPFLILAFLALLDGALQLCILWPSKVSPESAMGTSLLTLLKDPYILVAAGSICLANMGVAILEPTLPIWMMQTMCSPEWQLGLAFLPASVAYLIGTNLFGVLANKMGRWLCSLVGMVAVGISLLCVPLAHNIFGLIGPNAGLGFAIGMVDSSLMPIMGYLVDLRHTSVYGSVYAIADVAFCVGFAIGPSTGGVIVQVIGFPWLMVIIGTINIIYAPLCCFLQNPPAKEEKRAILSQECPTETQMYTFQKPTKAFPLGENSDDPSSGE
Protocol: PC-12 cells were purchased and maintained according to the protocols provided by American Type Culture Collection (ATCC, CRL-1721). Among the two variations of PC-12 provided by ATCC, the one displaying loosely adherent (with no PDL coating) and multicell-aggregating phenotype was used. PC-12 cells were grown in RPMI-1640 (Invitrogen, #11875) with 10% horse serum (Invitrogen, #16050-114), 5% fetal bovine serum (FBS) (Atlanta Biologicals), 100 U/ml penicillin (Invitrogen), and 100 μg/ml streptomycin (Invitrogen). […] After 6 days when the cells get ˜70% confluent, the medium was removed by aspiration, and the cells were washed with PBS (2 mL per well). […] Then, the probe uptake was initiated by adding 0.1 mL of experimental media containing Mini202 (220 μM, prepared from 10 mM stock solution in DMSO, final conc.=20 μM in the uptake assay) to the cells. After incubating the cells at 37° C. for 1 hour, the medium was removed by aspiration, and cells were washed with PBS (2 mL per well) and treated with dye-free experimental media. Fluorescence images were taken by using Leica FW 4000 equipped with Chroma custom filter cube (ex=350/50 nm, em=460/50 nm) and Hamamatsu digital camera C4742-95. The fluorescent images and bright field images were acquired for 2000 ms and 37 ms, respectively. […]

VMAT2 = target: T2, VMAT2 (Rattus norvegicus, UniProt Q01827); assay: Fluorescent microscopy probe uptake assay in VMAT2/HEK cells; assay type: cell-based; conditions: 20 μM probe; for Uptake pattern in screening with VMAT2/HEK and HEK cells: 30 min, VMAT2/HEK vs HEK cells, with or without 1 μM TBZ or reserpine; for Probe uptake in VMAT2-HEK cells: 30 min incubation
T2 construct: host or cells: HEK GnTI- (nonglycosylating) cells stably expressing VMAT2
Protocol: HEK GNTI^− (nonglycosylating) cell line stably expressing VMAT2 (VMAT2-HEK) and HEK GNU^− cell line stably transected with TetR (HEK) to serve as a control were kindly provided by the laboratory of Robert Edwards at UCSF. Cells were grown in DMEM+Glutamax (Invitrogen #10569) with 10% fetal bovine serum (FBS) (Atlanta Biologicals), 100 U/ml penicillin (Nitrogen), and 100 μg/ml streptomycin (Invitrogen). […] The medium was removed by aspiration, and the cells were washed with PBS (2 mL per well). […] Then, the probe uptake was initiated by adding 0.1 mL of experimental media containing probe (220 μM, prepared from 10 mM stock solution in DMSO, final conc.=20 μM in the uptake assay). After incubating at 37° C. for 30 minutes, the media was removed by aspiration, and the cells were washed with PBS (2 mL per well) and treated with probe-free experimental media. Fluorescence images were taken by using Leica FW 4000 equipped with Chroma custom filter cube (ex=350/50 nm, em=460/50 nm) and Hamamatsu digital camera C4742-95. The fluorescent images and bright field images were acquired for 2000 ms and 37 ms, respectively. All images were adjusted using the same contrast and brightness level using Images J (National Institute of Health).

HEK cells = assay: Fluorescent microscopy probe uptake in control (non-transfected) HEK cells; assay type: cell-based, human; conditions: 20 μM probe, 30 min incubation
Protocol: HEK GNTI^− (nonglycosylating) cell line stably expressing VMAT2 (VMAT2-HEK) and HEK GNU^− cell line stably transected with TetR (HEK) to serve as a control were kindly provided by the laboratory of Robert Edwards at UCSF. Cells were grown in DMEM+Glutamax (Invitrogen #10569) with 10% fetal bovine serum (FBS) (Atlanta Biologicals), 100 U/ml penicillin (Nitrogen), and 100 μg/ml streptomycin (Invitrogen). […] After 5 days, the cells looked fibroblastic and had reached ˜70% confluence. The medium was removed by aspiration, and the cells were washed with PBS (2 mL per well). […] Then, the probe uptake was initiated by adding 0.1 mL of experimental media containing probe (220 μM, prepared from 10 mM stock solution in DMSO, final conc.=20 μM in the uptake assay). After incubating at 37° C. for 30 minutes, the media was removed by aspiration, and the cells were washed with PBS (2 mL per well) and treated with probe-free experimental media. Fluorescence images were taken by using Leica FW 4000 equipped with Chroma custom filter cube (ex=350/50 nm, em=460/50 nm) and Hamamatsu digital camera C4742-95. The fluorescent images and bright field images were acquired for 2000 ms and 37 ms, respectively. All images were adjusted using the same contrast and brightness level using Images J (National Institute of Health).

VMAT2-HEK cells = assay: Chloroquine-induced Mini202 redistribution in VMAT2-HEK cells; assay type: cell-based, human; conditions: chloroquine 300 μM, 3 min, VMAT2-HEK cells labeled with Mini202
Protocol: For the chloroquine-induced Mini202 redistribution experiment, after probe loading and cell washing with PBS, 1 mL of experimental media containing 300 μM chloroquine was added to the cells at RT for 3 minutes, after which time fluorescent images were taken by the same procedure described above.

LDCVs in PC-12 cells = assay: Two-photon ratiometric pH measurement of secretory vesicles (LDCVs) in PC-12 cells; conditions: PC-12 cells loaded with Mini202, 100 μM methamphetamine, 5 minutes, RT
[5] = PBS buffer at different pH values, read-out: pKa
[6] = n-octanol / PBS pH 7.4, 20 μM probe
[7] = n-octanol/PBS, pH 7.4, n-octanol / PBS pH 7.4, 20 μM probe

T2 sequence (Q01827 whole entry): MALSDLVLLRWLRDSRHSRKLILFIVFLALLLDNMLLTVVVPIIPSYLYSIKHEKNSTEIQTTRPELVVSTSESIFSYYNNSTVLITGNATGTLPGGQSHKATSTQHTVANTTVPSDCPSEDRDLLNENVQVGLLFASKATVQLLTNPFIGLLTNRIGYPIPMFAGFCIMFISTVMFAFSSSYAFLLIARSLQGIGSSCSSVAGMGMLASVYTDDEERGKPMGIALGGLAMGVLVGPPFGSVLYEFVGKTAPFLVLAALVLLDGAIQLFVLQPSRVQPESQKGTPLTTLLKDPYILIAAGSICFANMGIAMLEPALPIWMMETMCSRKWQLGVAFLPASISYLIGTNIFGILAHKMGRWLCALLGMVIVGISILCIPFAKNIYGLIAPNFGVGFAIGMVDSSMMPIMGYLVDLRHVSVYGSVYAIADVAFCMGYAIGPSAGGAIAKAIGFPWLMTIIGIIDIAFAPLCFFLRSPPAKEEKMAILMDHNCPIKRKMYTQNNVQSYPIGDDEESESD

| SMILES | pKa [1, 5] | Uptake pattern in screening with VMAT2/HEK and HEK cells (VMAT2) | logD at 3 days [4, 7] | logD at 3 days [4, 6] | other results |
| --- | --- | --- | --- | --- | --- |
| NCCc1cc2cc(Cl)c(O)cc2oc1=O [Mini202] | 6.1 | VMAT2 substrates | – | – | pKa [1]: 6.06; pKa [2]: 5.93 ± 0.04; Photostability [3]: photostable; LogD (at pH 7.4) [4, 6]: −1.5 and −1.42; Mini202 uptake / labeling in PC-12 cells (VMAT1; 20 μM, 1 h): fluorescent puncta; also recorded: VMAT1 substrate; Probe uptake in VMAT2-HEK cells (VMAT2): highest uptake; also recorded: punctuate fluorescence patterns; Probe uptake in VMAT2-HEK cells (VMAT2; listed as Mini202.TFA): punctuate uptake in a VMAT2-dependent manner; also recorded: fluorescent puncta; Probe uptake in non-transfected HEK cells (HEK cells): No uptake; Probe uptake in non-transfected HEK cells (HEK cells; listed as Mini202.TFA): no uptake |
| NCCc1cc(=O)oc2cc(O)c(Cl)cc12 [Mini102] | 5.8 | – | -1.45 | – | pKa [1]: 5.77 |
| NCCC(=O)c1cc2cc(Cl)c(O)cc2oc1=O [Mini302] | 4.68 | no uptake in either cell lines | – | 0.24 | – |
| NCCc1cc(=O)oc2c(Cc3ccccc3)c(O)c(F)cc12 [Mini106] | 6.09 | VMAT2 substrates | – | 0.18 | – |
| NCCC(=O)c1cc2ccc(O)cc2oc1=O [Mini301] | 7 | no uptake in either cell lines | – | 0.14 | – |
| CCN(CC)CCCC(C)Nc1ccnc2cc(Cl)ccc12 (centres unmarked) [chloroquine] | – | – | – | – | Redistribution of Mini202 from acidic vesicles (VMAT2-HEK cells): diffusion of the punctuate fluorescent pattern; also recorded: redistribution of Mini202 from the acidic vesicles to cytosol |
| NCCc1cc(=O)oc2cc(O)ccc12 [Mini101] | 7.2 | – | -0.94 | – | pKa [1]: 7.24 |
| NCCc1cc2c(ccc3ccc(O)cc32)oc1=O [Mini401] | 9.36 | non-selective uptake | – | 0.86 | – |
| NCCc1cc2ccc(O)cc2oc1=O [Mini201] | 7.6 | VMAT2 substrates | -1.01 | – | – |
| CN[C@@H](C)Cc1ccccc1 [methamphetamine] | – | – | – | – | emission ratio (I760/I692) after drug exposure (LDCVs in PC-12 cells): 1.19; vesicular pH in PC-12 cells after drug exposure (LDCVs in PC-12 cells): 6.36 and 6.4 |
| CC(C)(C)c1cc2c(CCN)cc(=O)oc2cc1O [Mini104] | 7.94 | non-selective uptake | 0.89 | – | – |
| NCCc1cc(=O)oc2cc(O)c(F)cc12 [Mini103] | 5.95 | – | -1.98 | – | – |
| CC(C)(C)CC(C)(C)c1cc2c(CCN)cc(=O)oc2cc1O [Mini105] | 8.49 | non-selective uptake | – | 1.3 | – |
| COC(=O)[C@H]1[C@H]2C[C@@H]3c4[nH]c5cc(OC)ccc5c4CCN3C[C@H]2C[C@@H](OC(=O)c2cc(OC)c(OC)c(OC)c2)[C@@H]1OC [reserpine, reference compound] | – | – | – | – | Effect of VMAT1 inhibitor on Mini202 uptake in PC-12 cells (VMAT1; reserpine 1 μM, 1 h pre-incubation, then 20 μM Mini202 1 h): no detectable labeling; also recorded: completely inhibited |
